{
  "source": "patent US5340806A",
  "about": "“Composition containing organogermanium compound and immunity adjusting agent comprising the composition” (Sanwa Kagaku Kenkyusho Co., Ltd., priority 1984, dated 1994)",
  "key": {"chronic B hepatitis": {"system": "chronic B hepatitis", "assay_type": "in vivo, human patients", "details": "30 mg/day", "description": "Utility or effectiveness of the organogermanium compound is checked in comparison with that of a placebo as a control. Interferons have widely been accepted as drugs for curing chronic hepatitis, but those are injectionally dosed. On the contrary, the organogermanium compound is orally dosed. In recent years, some oral medicines for curing liver diseases have been developed and the effectiveness thereof has been evaluated by using a placebo as its control. Therefore, the \"placebo\" is selected as the control for the evaluation of the organogermanium compound in question. (a) To patients with chronic B hepatitis: 30 mg/day/body. Experiment period of time was set for 16 weeks for the patients with chronic B hepatitis and for 12 weeks for the patients with non A and non B hepatitis."}, "[1]": {"system": "adjuvant arthritis in rats", "assay": "Adjuvant arthritis in rats", "assay_type": "in vivo, S.D. male rats", "details": "100 mg/kg/day oral, FIG. 12", "method": "0.05 ml of an adjuvant (prepared by suspending 0.6 mg of micobacteriumbutircum into 0.05 ml of liquid paraffin) was injected under the skin of a hind leg heel in S.D. male rats. After 1, 3, 5, 7, 21, and 28 days from the adjuvant dosage, the volume of the dosed and non-dosed legs was measured to determine a ratio of the edema.\nThe organogermanium compound was orally dosed for 28 days after the adjuvant dosage, in an amount of 1, 10 and 100 mg/kg/day, respectively."}, "[2]": {"system": "chronic non A non B hepatitis", "assay_type": "in vivo, human patients", "details": "60 mg/day, 12 weeks", "description": "Utility or effectiveness of the organogermanium compound is checked in comparison with that of a placebo as a control. Interferons have widely been accepted as drugs for curing chronic hepatitis, but those are injectionally dosed. On the contrary, the organogermanium compound is orally dosed. In recent years, some oral medicines for curing liver diseases have been developed and the effectiveness thereof has been evaluated by using a placebo as its control. Therefore, the \"placebo\" is selected as the control for the evaluation of the organogermanium compound in question. (b) To patients with non A non B hepatitis: 60 mg/day/body. Experiment period of time was set for 16 weeks for the patients with chronic B hepatitis and for 12 weeks for the patients with non A and non B hepatitis."}},
  "data": [
    {"substance": "3-oxygermylpropionic acid [Compound No. 1]", "values": [
      {"measurement": "A/G change", "setting": "chronic B hepatitis", "result": ".uparw. **"},
      {"measurement": "GOT change", "setting": "chronic B hepatitis", "result": ".dwnarw. ***"},
      {"measurement": "GOT, test versus placebo", "setting": "chronic B hepatitis", "result": "+ (S>P)"},
      {"measurement": "GPT change", "setting": "chronic B hepatitis", "result": ".dwnarw. ***"},
      {"measurement": "GPT, test versus placebo", "setting": "chronic B hepatitis", "result": "* (S>P)"},
      {"measurement": "Globulin change", "setting": "chronic B hepatitis", "result": ".dwnarw. ***"},
      {"measurement": "Globulin, test versus placebo", "setting": "chronic B hepatitis", "result": "+ (S>P)"},
      {"measurement": "HBe-AG (log conversion) change", "setting": "chronic B hepatitis", "result": ".uparw. ***"},
      {"measurement": "HBe-AG (log conversion), test versus placebo", "setting": "chronic B hepatitis", "result": "* (S>P)"},
      {"measurement": "HBe-Ab change", "setting": "chronic B hepatitis", "result": ".uparw. *"},
      {"measurement": "HBe-Ab, test versus placebo", "setting": "chronic B hepatitis", "result": "* (S>P)"},
      {"measurement": "Serum albumin change", "setting": "chronic B hepatitis", "result": ".uparw. +"},
      {"measurement": "TTT change", "setting": "chronic B hepatitis", "result": ".dwnarw. ***"},
      {"measurement": "Total cholesterol change", "setting": "chronic B hepatitis", "result": ".uparw. *"},
      {"measurement": "Total cholesterol, test versus placebo", "setting": "chronic B hepatitis", "result": "* (S>P)"},
      {"measurement": "ZTT change", "setting": "chronic B hepatitis", "result": ".dwnarw. **"},
      {"measurement": "γ-GPT change", "setting": "chronic B hepatitis", "result": ".dwnarw. **"},
      {"measurement": "Improvement (objective)", "setting": "chronic B hepatitis; 16 weeks, placebo 13%", "result": 10, "unit": "%"},
      {"measurement": "Improvement (HBe Ag-Ab)", "setting": "chronic B hepatitis; 16 weeks, placebo 25%", "result": 51, "unit": "%"},
      {"measurement": "Improvement (sec. judgement)", "setting": "chronic B hepatitis; 16 weeks, placebo 29%", "result": 54, "unit": "%"},
      {"measurement": "Improvement (Doc. on duty)", "setting": "chronic B hepatitis; 16 weeks, placebo 31%", "result": 58, "unit": "%"},
      {"measurement": "Effectiveness (slight or more)", "setting": "chronic B hepatitis; 16 weeks, placebo 34%", "result": 63, "unit": "%"},
      {"measurement": "Improvement (general)", "setting": "chronic B hepatitis; 16 weeks, placebo 39%", "result": 66, "unit": "%"},
      {"measurement": "Improvement (self)", "setting": "chronic B hepatitis; 16 weeks, placebo 40%", "result": 53, "unit": "%"},
      {"measurement": "effect on secondary phlegmasia after 14 to 28 days", "setting": "[1]", "result": "an inhibition effect to a secondary phlegmasia"},
      {"measurement": "A/G change", "setting": "[2]", "result": ".uparw. +"},
      {"measurement": "GOT change", "setting": "[2]", "result": ".dwnarw. ***"},
      {"measurement": "GOT, test versus placebo", "setting": "[2]", "result": "** (S>P)"},
      {"measurement": "GPT change", "setting": "[2]", "result": ".dwnarw. ***"},
      {"measurement": "GPT, test versus placebo", "setting": "[2]", "result": "** (S>P)"},
      {"measurement": "Serum albumin change", "setting": "[2]", "result": ".dwnarw. **"},
      {"measurement": "γ-GPT change", "setting": "[2]", "result": ".dwnarw. *"},
      {"measurement": "γ-GPT, test versus placebo", "setting": "[2]", "result": "* (S>P)"},
      {"measurement": "Improvement (objective)", "setting": "[2]; placebo 10%", "result": 8, "unit": "%"},
      {"measurement": "Improvement (sec. judgement)", "setting": "[2]; placebo 26%", "result": 51, "unit": "%"},
      {"measurement": "Effectiveness (slight or more)", "setting": "[2]; placebo 29%", "result": 50, "unit": "%"},
      {"measurement": "Improvement (Jud. by Doc.)", "setting": "[2]; placebo 29%", "result": 56, "unit": "%"},
      {"measurement": "Improvement (general)", "setting": "[2]; placebo 32%", "result": 59, "unit": "%"},
      {"measurement": "Improvement (self)", "setting": "[2]; placebo 48%", "result": 50, "unit": "%"}
    ]}
  ]
}
